Measured values as given in patent US3985740A, “7-[D-(α-amino-α-phenyl-, 2-thienyl- and 3-thienylacetamido)]-3-(5-methylthiazol-2-yl)carbonylthiomethyl-3-cephem -4-carboxylic acids” (Bristol-Myers Company, priority 1974, dated 1976).
Converted amounts (≈) assume the structure as drawn. Where two headings read alike, the source gives them in different places.

Columns and labels:
[1] = test system: K. pneumoniae A9977; test: M.I.C. by tube dilution; type: cell-based; conditions: Klebsiella pneumoniae, A9977; at 10^-^4 dilution; overnight 37° C.; read-out: M.I.C.
[2] = test system: S. aureus BX 1633-2 A9606; test: M.I.C. by tube dilution; type: cell-based; conditions: Staphylococcus aureus, overnight 37° C., read-out: M.I.C.
[3] = test system: Ps. aeruginosa A9843A; test: M.I.C. by tube dilution; type: cell-based; conditions: Pseudomonas aeruginosa
[4] = test system: E. coli A9675; test: M.I.C. by tube dilution; type: cell-based; conditions: Escherichia coli, A9675; at 10^-^4 dilution; overnight 37° C.; read-out: M.I.C.
[5] = test system: E. coli Juhl A15119; test: M.I.C. by tube dilution; type: cell-based; conditions: Escherichia coli, JUHLA15119
[6] = test system: S. aureus methicillin-resistant A15097; test: M.I.C. by tube dilution; type: cell-based; conditions: Staphylococcus aureus, at 10^-^3 dilution, overnight 37° C.
[7] = test system: S. aureus A9748; test: M.I.C. by tube dilution; type: cell-based; conditions: Staphylococcus aureus, overnight 37° C., read-out: M.I.C.
[8] = test system: Pr. mirabilis A9900; test: M.I.C. by tube dilution; type: cell-based; conditions: Proteus mirabilis, A9900; at 10^-^4 dilution; overnight 37° C.; read-out: M.I.C.
[9] = test system: K. pneumoniae A15130; test: M.I.C. by tube dilution; type: cell-based; conditions: Klebsiella pneumoniae, A15130; at 10^-^4 dilution; overnight 37° C.; read-out: M.I.C.
[10] = test system: Str. pyogenes A9604; test: M.I.C. by tube dilution; type: cell-based; conditions: Streptococcus pyogenes, Str. pyogenes + 5% serum, 50% Nutrient Broth - 45% Antibiotic Assay Broth, overnight 37° C.
[11] = Blood levels in the mouse after oral administration; type: in vivo
Description: Blood levels in the mouse after oral administration were
determined with the following results:

[12] = test system: Pr. morganii A15153; test: M.I.C. by tube dilution; type: cell-based; conditions: Morganella morganii, at 10^-^4 dilution, overnight 37° C., read-out: M.I.C.
[13] = test system: certain important pathogenic organisms; test: In vitro activity in the primary screening tests (overall); type: cell-based; conditions: in words
Source text: This combination of good oral absorption and high antibacterial activity in a cephalosporin while highly desirable is quite uncommon in compounds reported to date. […] To illustrate the unpredictability of oral absorption and antibacterial activity in a closely related series of cephalosporin compounds, Tables 1-8 below compare in vitro activities and oral absorption as tested in the mouse of the compounds of the formula ##SPC12##

[14] = test system: D. pneumoniae A9585; test: M.I.C. by tube dilution; type: cell-based; conditions: Streptococcus pneumoniae, D. pneumoniae + 5% serum, 50% Nutrient Broth - 45% Antibiotic Assay Broth, overnight 37° C.
[15] = test system: Ser. marcescens A20019; test: M.I.C. by tube dilution; type: cell-based; conditions: Serratia marcescens
[16] = test system: Sal. enteritidis A9531; test: M.I.C. by tube dilution; type: cell-based; conditions: Salmonella enterica, ENTERITIDIS; at 10^-^4 dilution; overnight 37° C.; read-out: M.I.C.
[17] = test system: S. aureus Smith A9537; test: M.I.C. by tube dilution; type: cell-based; conditions: Staphylococcus aureus, overnight 37° C., read-out: M.I.C.

N[C@@H](C(=O)NC1C(=O)N2C(C(=O)O)=C(CSC(=O)c3nccs3)CS[C@H]12)c1ccccc1 (stereo partly drawn) [Compound 567, 7-[D-(-)-α-Aminophenylacetamido]-3-(thiazol-2-yl)carbonylthiomethyl-3-cephem-4-carboxylic acid]
MIC [1]: 2 µg/mL (≈ 4.08 µM)
MIC ([2]; BX16332A9606, at 10^-^2 dilution): 2 µg/mL (≈ 4.08 µM)
MIC ([2]; BX16332A9606, at 10^-^3 dilution): 0.6 µg/mL (≈ 1.22 µM)
MIC [3]: > 125 µg/mL
MIC [4]: 4 µg/mL (≈ 8.15 µM)
MIC [5]: 1 µg/mL (≈ 2.04 µM)
MIC [6]: 4 µg/mL (≈ 8.15 µM)
MIC ([7]; A9748, at 10^-^2 dilution): 16 µg/mL (≈ 32.6 µM)
MIC ([7]; A9748, at 10^-^3 dilution): 4 µg/mL (≈ 8.15 µM)
MIC [8]: 2 µg/mL (≈ 4.08 µM)
MIC [9]: 8 µg/mL (≈ 16.3 µM)
MIC [10]: 0.04 µg/mL
concentration at 0.5 h ([11]; blood, 100 mg/kg, mouse, oral, 100 mgm./kg., 0.5 hrs. after administration, read-out: Blood Level): 16000 ng/mL
concentration at 1 h ([11]; blood, 100 mg/kg, mouse, oral, 100 mgm./kg., 1 hr. after administration, read-out: Blood Level): 14100 ng/mL
concentration at 2 h ([11]; blood, 100 mg/kg, mouse, oral, 100 mgm./kg., 2 hrs. after administration, read-out: Blood Level): 3400 ng/mL
concentration at 3.5 h ([11]; blood, 100 mg/kg, mouse, oral, 100 mgm./kg., 3.5 hrs. after administration, read-out: Blood Level): < 400 ng/mL
oral absorption ([11]; in words): good oral absorption properties
MIC [12]: 63 µg/mL (≈ 128 µM)
activity relative to cephalexin [13]: excellent activity relative to cephalexin
MIC [14]: 0.04 µg/mL
MIC [15]: 125 µg/mL (≈ 255 µM)
MIC [16]: 0.08 µg/mL (≈ 0.163 µM)
MIC ([17]; SMITHA9537, + 50% serum, at 10^-^4 dilution): 8 µg/mL
MIC ([17]; SMITHA9537, at 10^-^4 dilution): 0.3 µg/mL (≈ 0.612 µM)
